Patent publication US20100003217A1, “Compounds and Pharmaceutical Compositions for the Treatment of Viral Infections” (priority 2008, published 2010)
Values joined by “and” are separate entries in the source; they are usually repeats but may differ in a detail not shown here. Identical values can stand only once.

Assays:
[1] = system: monkey primary hepatocytes; assay: Metabolic disposition of [^14C]-Compound 1 and [^14C]-2′-C-methyl guanosine in monkey primary hepatocytes (incubation medium, cellular extracts, nucleotide levels); format: in vitro ADME, Cynomolgus monkey; conditions: for AUC (area under the concentration-time curve) of Compound 7 levels: 0-24 h
Method in brief: (§1)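 Rat, monkey or human primary hepatocytes on collagen I plates (1.6 million cells/mL) were incubated at 37° C with 1 or 10 μM C-8 [^14C]-labelled compound or 2′-C-methyl guanosine for 1, 4, 8 and 24 hours. Medium and 70% methanol cell extracts were analysed by LSC and radio-HPLC. Nucleotides were identified by alkaline phosphatase treatment and retention-time matching to standards.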

rat primary hepatocytes = assay: Metabolic disposition of [^14C]-Compound 1 and [^14C]-2′-C-methyl guanosine in rat primary hepatocytes (incubation medium, cellular extracts, nucleotide levels); format: in vitro ADME, Sprague Dawley rat
Method in brief: as §1

[2] = monkey hepatocytes (Cy234), 10 μM [^14C]-Compound 1, 4 h
[3] = monkey hepatocytes Cy230, 10 μM [^14C]-2′-C-methyl guanosine, 1 h
[4] = monkey hepatocytes Cy230, 10 μM [^14C]-2′-C-methyl guanosine, 8 h
[5] = monkey hepatocytes Cy230, 10 μM [^14C]-2′-C-methyl guanosine, 24 h
[6] = monkey hepatocytes Cy234, 10 μM [^14C]-2′-C-methyl guanosine, 1 h
[7] = monkey hepatocytes Cy234, 10 μM [^14C]-2′-C-methyl guanosine, 4 h
[8] = monkey hepatocytes Cy234, 10 μM [^14C]-2′-C-methyl guanosine, 8 h
[9] = monkey hepatocytes Cy234, 10 μM [^14C]-2′-C-methyl guanosine, 24 h
[10] = rat hepatocytes (Rs458), 1 μM [^14C]-Compound 1, 1 h
[11] = rat hepatocytes (Rs458), 1 μM [^14C]-Compound 1, 8 h

metabolites observed in cellular extracts (% of total radioactivity) ([1]; monkey hepatocytes (Cy230, Cy234), 10 μM [^14C]-Compound 1, 1 h): 63.4% and 34.9%
metabolites observed in cellular extracts (% of total radioactivity) ([1]; monkey hepatocytes (Cy230, Cy234), 10 μM [^14C]-Compound 1, 8 h): 80.9% and 77.6%
metabolites observed in cellular extracts (% of total radioactivity) ([1]; monkey hepatocytes (Cy230, Cy234), 10 μM [^14C]-Compound 1, 24 h): 72.2% and 79.4%
2′-C-methyl guanosine nucleotide levels in cellular extracts [1, 2]: 183 pmol/million cells
metabolites observed in cellular extracts (% of total radioactivity) [1, 2]: 70.3%
2′-C-methyl guanosine nucleotide levels in cellular extracts ([1]; monkey hepatocytes Cy230, 10 μM [^14C]-2′-C-methyl guanosine, 0 h): 0 pmol/million cells
AUC (area under the concentration-time curve) of Compound 7 levels ([1]; monkey hepatocytes Cy230, 10 μM [^14C]-2′-C-methyl guanosine): 241 pmol * hr/million cells
2′-C-methyl guanosine nucleotide levels in cellular extracts [1, 3]: 2.87 pmol/million cells
Major metabolites observed in cellular extracts (% of total radioactivity) [1, 3]: 3.63 % of total radioactivity
Major metabolites observed in cellular extracts (% of total radioactivity) [1, 4]: 19.9 % of total radioactivity
2′-C-methyl guanosine nucleotide levels in cellular extracts [1, 5]: 6.85 pmol/million cells
Major metabolites observed in cellular extracts (% of total radioactivity) [1, 5]: 26.6 % of total radioactivity
2′-C-methyl guanosine nucleotide levels in cellular extracts ([1]; monkey hepatocytes Cy230, 10 μM [^14C]-Compound 1, 0 h): 0 pmol/million cells
AUC (area under the concentration-time curve) of Compound 7 levels ([1]; monkey hepatocytes Cy230, 10 μM [^14C]-Compound 1): 13765 pmol * hr/million cells
2′-C-methyl guanosine nucleotide levels in cellular extracts ([1]; monkey hepatocytes Cy230, 10 μM [^14C]-Compound 1, 1 h): 180 pmol/million cells
2′-C-methyl guanosine nucleotide levels in cellular extracts ([1]; monkey hepatocytes Cy230, 10 μM [^14C]-Compound 1, 8 h): 895 pmol/million cells
2′-C-methyl guanosine nucleotide levels in cellular extracts ([1]; monkey hepatocytes Cy230, 10 μM [^14C]-Compound 1, 24 h): 344 pmol/million cells
2′-C-methyl guanosine nucleotide levels in cellular extracts ([1]; monkey hepatocytes Cy234, 10 μM [^14C]-2′-C-methyl guanosine, 0 h): 0 pmol/million cells
AUC (area under the concentration-time curve) of Compound 7 levels ([1]; monkey hepatocytes Cy234, 10 μM [^14C]-2′-C-methyl guanosine): 956 pmol * hr/million cells
2′-C-methyl guanosine nucleotide levels in cellular extracts [1, 6]: 4.00 pmol/million cells
Major metabolites observed in cellular extracts (% of total radioactivity) [1, 6]: 8.70 % of total radioactivity
2′-C-methyl guanosine nucleotide levels in cellular extracts [1, 7]: 29.0 pmol/million cells
Major metabolites observed in cellular extracts (% of total radioactivity) [1, 7]: 35.6 % of total radioactivity
2′-C-methyl guanosine nucleotide levels in cellular extracts [1, 8]: 39.0 pmol/million cells
Major metabolites observed in cellular extracts (% of total radioactivity) [1, 8]: 43.0 % of total radioactivity
2′-C-methyl guanosine nucleotide levels in cellular extracts [1, 9]: 57.0 pmol/million cells
Major metabolites observed in cellular extracts (% of total radioactivity) [1, 9]: 51.8 % of total radioactivity
2′-C-methyl guanosine nucleotide levels in cellular extracts ([1]; monkey hepatocytes Cy234, 10 μM [^14C]-Compound 1, 0 h): 0 pmol/million cells
AUC (area under the concentration-time curve) of Compound 7 levels ([1]; monkey hepatocytes Cy234, 10 μM [^14C]-Compound 1): 9861 pmol * hr/million cells
2′-C-methyl guanosine nucleotide levels in cellular extracts ([1]; monkey hepatocytes Cy234, 10 μM [^14C]-Compound 1, 1 h): 22.0 pmol/million cells
2′-C-methyl guanosine nucleotide levels in cellular extracts ([1]; monkey hepatocytes Cy234, 10 μM [^14C]-Compound 1, 8 h): 476 pmol/million cells
2′-C-methyl guanosine nucleotide levels in cellular extracts ([1]; monkey hepatocytes Cy234, 10 μM [^14C]-Compound 1, 24 h): 552 pmol/million cells
Maximum Compound 7 levels ([1]; monkey hepatocytes, 10 μM [^14C]-2′-C-methyl guanosine, at 24 hours): 32 pmol/million cells
Compound 7 AUC0-24h ([1]; monkey hepatocytes, 10 μM [^14C]-Compound 1): 11,813 pmol*h/million cells
major intracellular metabolite, % of total intracellular radioactivity ([1]; monkey hepatocytes, 10 μM [^14C]-Compound 1, from 4-24 hours): > 70%
metabolites observed in cellular extracts (% of total radioactivity) (rat primary hepatocytes; rat hepatocytes (Rs448, Rs458), 10 μM [^14C]-Compound 1, 1 h, listed as Compd 7): 59.0% and 50.8%
metabolites observed in cellular extracts (% of total radioactivity) (rat primary hepatocytes; rat hepatocytes (Rs448, Rs458), 10 μM [^14C]-Compound 1, 4 h, listed as Compd 7): 70.9% and 69.1%
metabolites observed in cellular extracts (% of total radioactivity) (rat primary hepatocytes; rat hepatocytes (Rs448, Rs458), 10 μM [^14C]-Compound 1, 8 h, listed as Compd 7): 73.0% and 72.5%
metabolites observed in cellular extracts (% of total radioactivity) (rat primary hepatocytes; rat hepatocytes (Rs448, Rs458), 10 μM [^14C]-Compound 1, 24 h, listed as Compd 7): 66.2% and 54.5%
2′-C-methyl guanosine nucleotide levels in cellular extracts (rat primary hepatocytes; [10]): 80.0 pmol/million cells
metabolites observed in cellular extracts (% of total radioactivity) (rat primary hepatocytes; [10]): 50.5%
2′-C-methyl guanosine nucleotide levels in cellular extracts (rat primary hepatocytes; [11]): 238 pmol/million cells
metabolites observed in cellular extracts (% of total radioactivity) (rat primary hepatocytes; [11]): 77.6%
2′-C-methyl guanosine nucleotide levels in cellular extracts (rat primary hepatocytes; rat hepatocytes (Rs458), 1 μM [^14C]-Compound 1, 24 h): 103 pmol/million cells
SMILES: C[C@@]1(O)[C@H](O)[C@@H](COP(=O)(O)OP(=O)(O)OP(=O)(O)O)O[C@H]1n1cnc2c(=O)[nH]c(N)nc21 [Compound 7, [(2R)-2-methyl-β-D-ribofuranosyl]guanine 5′-triphosphate]
2′-C-methyl guanosine nucleotide levels in cellular extracts [1, 4]: 14.58 pmol/million cells and 14.6 pmol/million cells
Compound 7 peak levels ([1]; monkey hepatocytes, 10 μM [^14C]-Compound 1, at 8 hours in one donor and at 24 hours in the second): 895 pmol/million cells and 552 pmol/million cells
